Experimental data published in ChEMBL document CHEMBL3751777, “Important Hydrogen Bond Networks in Indoleamine 2,3-Dioxygenase 1 (IDO1) Inhibitor Design Revealed by Crystal Structures of Imidazoleisoindole Derivatives with IDO1” (J Med Chem, 2016).

How the values were obtained:
[1] = target: T1, Indoleamine 2,3-dioxygenase 1 (Homo sapiens, UniProt P14902); assay: Inhibition of recombinant human IDO1 assessed as conversion of […] incubated for 1 hr by fluorescence analysis
[2] = target: T1, Indoleamine 2,3-dioxygenase 1; assay: Inhibition of IDO1 in IFNgamma-stimulated human HeLa cells incubated for 24 hrs; format: cell-based
[3] = Toxicity in dog administered as bid for 28 days; format: organism-based, Canis lupus familiaris; conditions: in vivo
[4] = Toxicity in rat administered as bid for 28 days; format: organism-based; conditions: in vivo
[5] = system: Mus musculus; assay: Reduction of kynurenine in LPS-stimulated mouse plasma at 50 mg/kg, po by LC/MS/MS analysis; format: functional; design: scale not given: the % may be the effect or the level left
[6] = system: Mus musculus; assay: Reduction of kynurenine in LPS-stimulated mouse tissue at 50 mg/kg, po by LC/MS/MS analysis; format: functional; design: scale not given: the % may be the effect or the level left

T1 sequence (P14902 whole entry): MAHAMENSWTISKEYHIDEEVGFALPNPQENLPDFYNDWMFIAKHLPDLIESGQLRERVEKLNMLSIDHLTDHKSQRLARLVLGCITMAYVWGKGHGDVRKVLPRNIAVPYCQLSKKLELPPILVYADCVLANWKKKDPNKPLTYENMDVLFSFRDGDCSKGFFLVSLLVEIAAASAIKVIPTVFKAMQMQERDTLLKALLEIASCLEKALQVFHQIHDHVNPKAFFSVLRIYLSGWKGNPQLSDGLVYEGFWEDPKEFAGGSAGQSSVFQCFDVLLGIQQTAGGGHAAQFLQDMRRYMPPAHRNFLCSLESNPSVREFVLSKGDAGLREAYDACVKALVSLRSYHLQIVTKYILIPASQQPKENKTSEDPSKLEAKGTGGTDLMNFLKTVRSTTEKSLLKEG

Row | Compound | IC50 [1] | EC50 [2] | also measured
1 | OC(Cn1c2ccccc2c2ccncc21)C1CCCCC1 (stereo not drawn) | > 10 µM |  | 
2 | Cc1ncc2n1C(CC(O)C1CCCCC1)c1ccccc1-2 (stereo not drawn) | > 10 µM | > 10 µM | 
3 | OC(CC1c2ccccc2-c2cnnn21)C1CCCCC1 (stereo not drawn) | > 10 µM | > 10 µM | 
4 | OC(Cn1c2ccccc2c2cccnc21)C1CCCCC1 (stereo not drawn) | > 10 µM |  | 
5 | OC(CC1c2ccccc2-c2cncn21)C1CCCCC1 (mixture of isomers) |  |  | NOAEL at 672 h [3]: 80 mg/kg/day; NOAEL at 672 h [4]: 80 mg/kg/day; Activity [5]: 50%; Activity [6]: 50%
6 | OC(CC1Nc2ccccc2-c2cncn21)C1CCCCC1 (stereo not drawn) | 1.14 µM | > 10 µM | 
7 | O=C(Cn1c2ccccc2c2cccnc21)C1CCCCC1 | > 10 µM |  | 
